#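 All cell lines were grown in 96-well plates and treated with compound for 48 hours. The concentration for full growth arrest is given as TGI.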
# Experiments:
# Test in all cases: inhibition of tumour cell growth, NCI panel, 48 h
# LOX IMVI melanoma = test system: LOX IMVI melanoma
# SN12C renal = test system: SN12C renal
# HOP-62 NSCLC = test system: HOP-62 NSCLC
# DU-145 prostate = test system: DU-145 prostate
# M14 melanoma = test system: M14 melanoma
# NCI-H226 lung = test system: NCI-H226 lung
# A498 renal = test system: A498 renal
# MOLT-4 leukemia = test system: MOLT-4 leukemia
# OVCAR-4 ovarian = test system: OVCAR-4 ovarian
# ACHN renal = test system: ACHN renal
# RXF 393 renal = test system: RXF 393 renal
# T-47D breast = test system: T-47D breast
# HCC-2998 colon = test system: HCC-2998 colon
# HCT-116 colon = test system: HCT-116 colon
# SK-OV-3 ovarian = test system: SK-OV-3 ovarian
# SR leukemia = test system: SR leukemia
# NCI-H522 lung = test system: NCI-H522 lung
# MDA-MB-231 breast = test system: MDA-MB-231 breast
# HOP-92 NSCLC = test system: HOP-92 NSCLC
# SNB-19 CNS = test system: SNB-19 CNS
# SK-MEL-28 melanoma = test system: SK-MEL-28 melanoma
# SF-539 CNS = test system: SF-539 CNS
# SK-MEL-2 melanoma = test system: SK-MEL-2 melanoma
# 786-0 renal = test system: 786-0 renal
# MDA-N = test system: MDA-N
# UACC-62 melanoma = test system: UACC-62 melanoma
# A549 NSCLC = test system: A549 NSCLC
# BT-549 breast = test system: BT-549 breast
# SK-MEL-5 melanoma = test system: SK-MEL-5 melanoma
# PC-3 prostate = test system: PC-3 prostate
# CAKI-1 renal = test system: CAKI-1 renal
# OVCAR-8 ovarian = test system: OVCAR-8 ovarian
# SF-295 CNS = test system: SF-295 CNS
# IGROV1 ovarian = test system: IGROV1 ovarian
# HL-60(TB) leukemia = test system: HL-60(TB) leukemia
# RPMI-8226 leukemia = test system: RPMI-8226 leukemia
# MALME-3M melanoma = test system: MALME-3M melanoma
# HT29 colon = test system: HT29 colon
# U251 CNS = test system: U251 CNS
# OVCAR-3 ovarian = test system: OVCAR-3 ovarian
# MCF7 breast = test system: MCF7 breast
# MDA-MB-435 = test system: MDA-MB-435
# OVCAR-5 ovarian = test system: OVCAR-5 ovarian
# KM12 colon = test system: KM12 colon
# NCI-H23 lung = test system: NCI-H23 lung
# SW-620 colon = test system: SW-620 colon
# CCRF-CEM leukemia = test system: CCRF-CEM leukemia
# SF-268 CNS = test system: SF-268 CNS
# HCT-15 colon = test system: HCT-15 colon
# HS 578T breast = test system: HS 578T breast
# NCI/ADR-RES ovarian = test system: NCI/ADR-RES ovarian
# NCI-H460 lung = test system: NCI-H460 lung
# TK-10 renal = test system: TK-10 renal
# UACC-257 melanoma = test system: UACC-257 melanoma
# SNB-75 CNS = test system: SNB-75 CNS
# EKVX NSCLC = test system: EKVX NSCLC
# COLO 205 colon = test system: COLO 205 colon
# RXF-631 renal = test system: RXF-631 renal
# DMS 114 small cell lung = test system: DMS 114 small cell lung
# XF 498 CNS = test system: XF 498 CNS
# DMS 273 small cell lung = test system: DMS 273 small cell lung
# LXFL 529 NSCLC = test system: LXFL 529 NSCLC
# KM20L2 colon = test system: KM20L2 colon
# UO-31 renal = test system: UO-31 renal
# M19-MEL melanoma = test system: M19-MEL melanoma
# K-562 leukemia = test system: K-562 leukemia
# DLD-1 colon = test system: DLD-1 colon
structure (smiles),measurement,setting,value
CC1(C)C(c2ccccc2)=[N+]([O-])C(C)(C)N1O,TGI,LOX IMVI melanoma,> 10 µM
same,TGI,SN12C renal,> 10 µM
same,TGI,HOP-62 NSCLC,> 10 µM
same,TGI,DU-145 prostate,> 10 µM
same,TGI,M14 melanoma,> 10 µM
same,TGI,NCI-H226 lung,> 10 µM
same,TGI,A498 renal,> 10 µM
same,TGI,MOLT-4 leukemia,> 10 µM
same,TGI,OVCAR-4 ovarian,> 10 µM
same,TGI,ACHN renal,> 10 µM
same,TGI,RXF 393 renal,> 10 µM
same,TGI,T-47D breast,> 10 µM
same,TGI,HCC-2998 colon,> 10 µM
same,TGI,HCT-116 colon,> 10 µM
same,TGI,SK-OV-3 ovarian,> 10 µM
same,TGI,SR leukemia,> 10 µM
same,TGI,NCI-H522 lung,> 10 µM
same,TGI,MDA-MB-231 breast,> 10 µM
same,TGI,HOP-92 NSCLC,> 10 µM
same,TGI,SNB-19 CNS,> 10 µM
same,TGI,SK-MEL-28 melanoma,> 10 µM
same,TGI,SF-539 CNS,> 10 µM
same,TGI,SK-MEL-2 melanoma,> 10 µM
same,TGI,786-0 renal,> 10 µM
same,TGI,MDA-N,> 10 µM
same,TGI,UACC-62 melanoma,> 10 µM
same,TGI,A549 NSCLC,> 10 µM
same,TGI,BT-549 breast,> 10 µM
same,TGI,SK-MEL-5 melanoma,> 10 µM
same,TGI,PC-3 prostate,> 10 µM
same,TGI,CAKI-1 renal,> 10 µM
same,TGI,OVCAR-8 ovarian,> 10 µM
same,TGI,SF-295 CNS,> 10 µM
same,TGI,IGROV1 ovarian,> 10 µM
same,TGI,HL-60(TB) leukemia,> 10 µM
same,TGI,RPMI-8226 leukemia,> 10 µM
same,TGI,MALME-3M melanoma,> 10 µM
same,TGI,HT29 colon,> 10 µM
same,TGI,U251 CNS,> 10 µM
same,TGI,OVCAR-3 ovarian,> 10 µM
same,TGI,MCF7 breast,> 10 µM
same,TGI,MDA-MB-435,> 10 µM
same,TGI,OVCAR-5 ovarian,> 10 µM
same,TGI,KM12 colon,> 10 µM
same,TGI,NCI-H23 lung,> 10 µM
same,TGI,SW-620 colon,> 10 µM
same,TGI,CCRF-CEM leukemia,> 10 µM
same,TGI,SF-268 CNS,> 10 µM
same,TGI,HCT-15 colon,> 10 µM
same,TGI,HS 578T breast,> 10 µM
same,TGI,NCI/ADR-RES ovarian,> 10 µM
same,TGI,NCI-H460 lung,> 10 µM
same,TGI,TK-10 renal,> 10 µM
same,TGI,UACC-257 melanoma,> 10 µM
same,TGI,SNB-75 CNS,> 10 µM
same,TGI,EKVX NSCLC,> 10 µM
same,TGI,COLO 205 colon,> 10 µM
O=c1c2c([nH]c3cc4c(cc13)OCO4)-c1ccccc1CC2,TGI,LOX IMVI melanoma,> 100 µM
same,TGI,SN12C renal,> 100 µM
same,TGI,HOP-62 NSCLC,> 100 µM
same,TGI,M14 melanoma,> 100 µM
same,TGI,NCI-H226 lung,> 100 µM
same,TGI,RXF-631 renal,> 100 µM
same,TGI,A498 renal,> 100 µM
same,TGI,MOLT-4 leukemia,> 100 µM
same,TGI,OVCAR-4 ovarian,> 100 µM
same,TGI,ACHN renal,> 100 µM
same,TGI,RXF 393 renal,> 100 µM
same,TGI,HCC-2998 colon,> 100 µM
same,TGI,HCT-116 colon,> 100 µM
same,TGI,SR leukemia,> 100 µM
same,TGI,DMS 114 small cell lung,> 100 µM
same,TGI,XF 498 CNS,> 100 µM
same,TGI,SNB-19 CNS,> 100 µM
same,TGI,DMS 273 small cell lung,> 100 µM
same,TGI,SK-MEL-28 melanoma,> 100 µM
same,TGI,SF-539 CNS,> 100 µM
same,TGI,SK-MEL-2 melanoma,> 100 µM
same,TGI,786-0 renal,> 100 µM
same,TGI,LXFL 529 NSCLC,> 100 µM
same,TGI,UACC-62 melanoma,> 100 µM
same,TGI,A549 NSCLC,> 100 µM
same,TGI,KM20L2 colon,> 100 µM
same,TGI,SK-MEL-5 melanoma,> 100 µM
same,TGI,OVCAR-8 ovarian,> 100 µM
same,TGI,SF-295 CNS,> 100 µM
same,TGI,IGROV1 ovarian,> 100 µM
same,TGI,HL-60(TB) leukemia,> 100 µM
same,TGI,UO-31 renal,> 100 µM
same,TGI,RPMI-8226 leukemia,> 100 µM
same,TGI,MALME-3M melanoma,> 100 µM
same,TGI,HT29 colon,> 100 µM
same,TGI,U251 CNS,> 100 µM
same,TGI,M19-MEL melanoma,> 100 µM
same,TGI,K-562 leukemia,> 100 µM
same,TGI,OVCAR-3 ovarian,> 100 µM
same,TGI,NCI-H23 lung,> 100 µM
same,TGI,SW-620 colon,> 100 µM
same,TGI,DLD-1 colon,> 100 µM
same,TGI,CCRF-CEM leukemia,> 100 µM
same,TGI,SF-268 CNS,> 100 µM
same,TGI,HCT-15 colon,> 100 µM
same,TGI,NCI-H460 lung,> 100 µM
same,TGI,TK-10 renal,> 100 µM
same,TGI,UACC-257 melanoma,> 100 µM
same,TGI,SNB-75 CNS,> 100 µM
same,TGI,EKVX NSCLC,> 100 µM
same,TGI,COLO 205 colon,> 100 µM
